Several values for one entry are separate records, joined by “and”; a condition that tells them apart may be missing. Equal values may be shown once. Blank lines part the entries; values can stand above or below the compound they belong to.
System: 362531-283-R-J2-PDC complex spheroid viability
Assay: Anticancer human tumor 362531-283-R-J2-PDC patient-derived colon adenocarcinoma cell line growth inhibition [RAS]
Settings: for viability, T/C: stronger effect = lower value
Excerpt: RAS pathway inhibitors in Combinations in Complex Spheroids
A high-throughput screen of multi-cell type tumor spheroids was designed to identify active combinations of RAS pathway inhibitors and targeted small molecules. Complex spheroids include a stromal component modeled by human endothelial cells (HUVEC) and fibroblasts modeled by human mesenchymal stem cells (MSCs). The concentration ranges selected for each drug and investigational agent were based upon clinically achievable concentrations if the clinical Cmax of the agent was known.
Compounds. The drugs and investigational agents: abemaciclib (NSC768073), cobimetinib (NSC768068), divarasib (GDC6063, NSC841802), docetaxel (NSC628503), GDC-1971 (RLY-1971, NSC841576), gemcitabine (NSC613327), inavolisib (NSC800729), ipatasertib (NSC767898), KB-0742 (NSC834161), MRTX-1133 (NSC836407), osimertinib (NSC779217), RMC-4630 (NSC839698), RMC-6236 (NSC851965), RMC-6291 (NSC852671), Ro-3306 (NSC812927), sapanisertib (NSC764658), SN-38 (NSC673596), staurosporine (NSC755774), SY5609 (NSC837396), and tovorafenib (DAY101, NSC766906), were obtained from the National Cancer Institute (NCI) Developmental Therapeutics Program Chemical Repository. The FDA-approved anticancer drug set is available from the NCI Developmental Therapeutics Program. […] The stock solutions were prepared in dimethyl sulfoxide (DMSO, Sigma-Aldrich, St. Louis, MO, cat. D2650) at 800-fold the tested concentration and stored at -70 degrees C prior to their use. All drugs and investigational agents were tested over a range starting from a high concentration at or near the clinical Cmax and decreasing in half-log increments. If the clinical Cmax for an agent had not been determined, the highest concentration tested was 10 microM.
Cell Culture. All cells were maintained in an incubator at 37 degrees C and 5% CO2 with 95% humidity. The PDC lines were cultured according to standard operating procedures established by the NCI PDMR. All PDCs were thawed and cultured in Matrigel-coated flasks prepared with a working solution of 1X Ham's F-12 nutrient mix, without supplementation (Invitrogen, Waltham, MA, cat. 11765054), 100 U/mL penicillin-streptomycin (Invitrogen, cat. 15140122), and 2.5% Matrigel (Corning Inc., Corning, NY, cat. 354248) for the first three passages. The 362531-283-R-J2-PDC and 782815-120-R-J1-PDC lines were cultured in 6C/Colon 1B media, which includes advanced DMEM/F-12 (Thermo Fisher Scientific, cat. 12634028), 10 mM HEPES (Thermo Fisher Scientific, cat. 15630080), 1X GlutaMAX supplement (Thermo Fisher Scientific, cat. 35050061), 0.1 mg/mL primocin (InvivoGen, San Diego, CA, cat. ant-pm-2), 10% defined fetal bovine serum, heat inactivated (HyClone Laboratories Inc., Logan, UT, cat. SH30070.03HI), 50% L-WRN conditioned media (ATCC, cat. CRL-3276), 1.25 mM N-Acetyl-L-cysteine (Sigma-Aldrich, cat. A9165), 10 mM nicotinamide (Sigma-Aldrich, cat. N0636), 1X B-27 supplement (Thermo Fisher Scientific, cat. 17504044), 1X N-2 supplement (Thermo Fisher Scientific, cat. 17502048), 50 ng/mL human EGF (Thermo Fisher Scientific, cat. PHG0311), and 10 microM Y-27632 dihydrochloride (Tocris Bioscience, cat. 1254). The K12877-001-R-J1-PDC line was cultured in 6I media, which includes all 6C/Colon 1B media plus 10 ng/mL human FGF-10 (PeproTech, cat. 100-26), 1 ng/mL human FGF-2 (PeproTech, cat. 100-18B), 1 µM prostaglandin E2 (Tocris Bioscience, cat. 2296), […] hydrocortisone (Sigma-Aldrich, cat. H4001), and […] bovine insulin (Sigma-Aldrich, cat. I6634). The K86415-001-R-J1-PDC line was cultured in 6D media, which includes all 6C/Colon 1B media components minus the L-WRN conditioned media. The 485176-168-R4-J1-PDC was cultured in PANC media, which includes all 6C/Colon 1B media plus 100 ng/mL human FGF-10 (PeproTech, cat. 100-26), 500 nM SB-431542 (Selleckchem, cat. S1067), and 10 nM gastrin (Tocris Bioscience, cat. 3006). […]

[1] = curve of first compound, second compound 0.0316 µM
[2] = curve of first compound, second compound 0.1 µM
[3] = curve of first compound, second compound 0.316 µM
[4] = curve of first compound, second compound 1 µM
[5] = curve of first compound, second compound 3.16 µM
[6] = curve of first compound, second compound 10 µM
[7] = second compound 0.0316 µM, first compound 0.00316 µM
[8] = second compound 0.0316 µM, first compound 0.01 µM
[9] = second compound 0.0316 µM, first compound 0.0316 µM
[10] = second compound 0.0316 µM, first compound 0.1 µM
[11] = second compound 0.0316 µM, first compound 0.316 µM
[12] = second compound 0.0316 µM, first compound 1 µM
[13] = second compound 0.1 µM, first compound 0.00316 µM
[14] = second compound 0.1 µM, first compound 0.01 µM
[15] = second compound 0.1 µM, first compound 0.0316 µM
[16] = second compound 0.1 µM, first compound 0.1 µM
[17] = second compound 0.1 µM, first compound 0.316 µM
[18] = second compound 0.1 µM, first compound 1 µM
[19] = second compound 0.316 µM, first compound 0.00316 µM
[20] = second compound 0.316 µM, first compound 0.01 µM
[21] = second compound 0.316 µM, first compound 0.0316 µM
[22] = second compound 0.316 µM, first compound 0.1 µM
[23] = second compound 0.316 µM, first compound 0.316 µM
[24] = second compound 0.316 µM, first compound 1 µM
[25] = second compound 1 µM, first compound 0.00316 µM
[26] = second compound 1 µM, first compound 0.01 µM
[27] = second compound 1 µM, first compound 0.0316 µM
[28] = second compound 1 µM, first compound 0.1 µM
[29] = second compound 1 µM, first compound 0.316 µM
[30] = second compound 1 µM, first compound 1 µM
[31] = second compound 3.16 µM, first compound 0.00316 µM
[32] = second compound 3.16 µM, first compound 0.01 µM
[33] = second compound 3.16 µM, first compound 0.0316 µM
[34] = second compound 3.16 µM, first compound 0.1 µM
[35] = second compound 3.16 µM, first compound 0.316 µM
[36] = second compound 3.16 µM, first compound 1 µM
[37] = second compound 10 µM, first compound 0.00316 µM
[38] = second compound 10 µM, first compound 0.01 µM
[39] = second compound 10 µM, first compound 0.0316 µM
[40] = second compound 10 µM, first compound 0.1 µM
[41] = second compound 10 µM, first compound 0.316 µM
[42] = second compound 10 µM, first compound 1 µM
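Note: spheroids exposed to the agents for 7 days before readout.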
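Throughout, for viability, T/C: luminescence viability as percent of DMSO vehicle control wells.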

IC50 (curve of compound): 226 nM [middle of 4 runs]
SMILES: CC(=O)OC12COC1CC(O)C1(C)C(=O)C(O)C3=C(C)C(OC(=O)C(O)C(NC(=O)OC(C)(C)C)c4ccccc4)CC(O)(C(OC(=O)c4ccccc4)C21)C3(C)C (stereo not drawn)
viability, T/C (compound 0.0316 µM): 101% [middle of 4 runs] | viability, T/C (compound 0.1 µM): 90.8% [middle of 4 runs] | viability, T/C (compound 0.316 µM): 32.6% [middle of 4 runs] | viability, T/C (compound 1 µM): 21.6% [middle of 4 runs] | viability, T/C (compound 3.16 µM): 27.5% [middle of 4 runs] | viability, T/C (compound 10 µM): 36% [middle of 4 runs]

IC50 (curve of compound): > 10000 nM and 6070 nM and 8410 nM
SMILES: NC1c2ccccc2OC12CCN(c1cnc3c(N4CCCc5ncccc54)n[nH]c3n1)CC2 (stereo not drawn)
viability, T/C (compound 0.0316 µM): 95.1% [middle of 4 runs] | viability, T/C (compound 0.1 µM): 90% [middle of 4 runs] | viability, T/C (compound 0.316 µM): 85.3% [middle of 4 runs] | viability, T/C (compound 1 µM): 76.1% [middle of 4 runs] | viability, T/C (compound 3.16 µM): 68.5% [middle of 4 runs] | viability, T/C (compound 10 µM): 49.4% [middle of 4 runs]

IC50 [1]: 526 nM | IC50 [2]: 472 nM | IC50 [3]: 158 nM | IC50 [4]: 110 nM | IC50 [5]: 48.9 nM | IC50 [6]: 5.45 nM
SMILES: C=CC(=O)Nc1cc(Nc2nccc(-c3cn(C)c4ccccc34)n2)c(OC)cc1N(C)CCN(C)C + C#Cc1c(F)ccc2cc(O)cc(-c3ncc4c(N5CC6CCC(C5)N6)nc(OCC56CCCN5CC(F)C6)nc4c3F)c12
viability, T/C [7]: 96.8% | viability, T/C [8]: 96.6% | viability, T/C [9]: 97.7% | viability, T/C [10]: 89.7% | viability, T/C [11]: 78.1% | viability, T/C [12]: 15.8% | viability, T/C [13]: 93% | viability, T/C [14]: 96.6% | viability, T/C [15]: 91.6% | viability, T/C [16]: 84.8% | viability, T/C [17]: 71.3% | viability, T/C [18]: 12.4% | viability, T/C [19]: 95.9% | viability, T/C [20]: 94.4% | viability, T/C [21]: 84.1% | viability, T/C [22]: 69.8% | viability, T/C [23]: 20.8% | viability, T/C [24]: 14.4% | viability, T/C [25]: 80.9% | viability, T/C [26]: 78.3% | viability, T/C [27]: 73% | viability, T/C [28]: 53.7% | viability, T/C [29]: 19.9% | viability, T/C [30]: 14.4% | viability, T/C [31]: 63.5% | viability, T/C [32]: 66.4% | viability, T/C [33]: 55.7% | viability, T/C [34]: 38.7% | viability, T/C [35]: 16.2% | viability, T/C [36]: 13.8% | viability, T/C [37]: 57.3% | viability, T/C [38]: 41.4% | viability, T/C [39]: 32.5% | viability, T/C [40]: 22.5% | viability, T/C [41]: 17.1% | viability, T/C [42]: 13.4%

IC50 [1]: 413 nM | IC50 [2]: 350 nM | IC50 [3]: 350 nM | IC50 [4]: 181 nM | IC50 [5]: 37.2 nM | IC50 [6]: < 3.16 nM
SMILES: O=C(c1ccc(F)c(F)c1Nc1ccc(I)cc1F)N1CC(O)([C@@H]2CCCCN2)C1 + C#Cc1c(F)ccc2cc(O)cc(-c3ncc4c(N5CC6CCC(C5)N6)nc(OCC56CCCN5CC(F)C6)nc4c3F)c12
viability, T/C [7]: 97.9% | viability, T/C [8]: 101% | viability, T/C [9]: 101% | viability, T/C [10]: 88.1% | viability, T/C [11]: 62.9% | viability, T/C [12]: 8.48% | viability, T/C [13]: 97.6% | viability, T/C [14]: 98.4% | viability, T/C [15]: 95.5% | viability, T/C [16]: 72.1% | viability, T/C [17]: 57.6% | viability, T/C [18]: 4.9% | viability, T/C [19]: 90.1% | viability, T/C [20]: 88.1% | viability, T/C [21]: 78.1% | viability, T/C [22]: 66.3% | viability, T/C [23]: 61.3% | viability, T/C [24]: 3.76% | viability, T/C [25]: 82.6% | viability, T/C [26]: 78.6% | viability, T/C [27]: 78.2% | viability, T/C [28]: 79.1% | viability, T/C [29]: 22.9% | viability, T/C [30]: 3.27% | viability, T/C [31]: 65.4% | viability, T/C [32]: 60.5% | viability, T/C [33]: 56.5% | viability, T/C [34]: 10.6% | viability, T/C [35]: 9.05% | viability, T/C [36]: 1.7% | viability, T/C [37]: 28% | viability, T/C [38]: 31.1% | viability, T/C [39]: 13.9% | viability, T/C [40]: 9.85% | viability, T/C [41]: 6.01% | viability, T/C [42]: 1.71%

Source: PubChem BioAssay AID2060909 (Molecular Pharmacology Branch, DTP, NCI, 2025)
